Values of other authors in patent US20050049209A1, “Pharmaceutical compositions for delivering macrolides” (priority 2003, published 2005).

Settings: can be solubilized at pH<5 as salt

For CC[C@H]1OC(=O)[C@H](C)[C@@H](OC2CC(C)(OC)C(O)C(C)O2)[C@H](C)[C@@H](OC2OC(C)CC(N(C)C)C2O)[C@](C)(OC)C[C@@H](C)C(=O)[C@H](C)[C@@H](O)[C@]1(C)O (stereo partly shown) [Clarithromycin freebase, 6-O-methyl-erythromycin], the solubility in water is listed as “substantially insoluble”.
